Assay results from US20250325565A1, “ERAVACYCLINE FOR TREATING CANCER” (B. G. NEGEV TECHNOLOGIES AND APPLICATIONS LTD., priority 2022, published 2025).
pIC50: −log10 of the molar value.

How the values were obtained:
Type in all cases: cell-based, human
AsPC-1 cells = assay: XTT cell proliferation assay, AsPC-1; conditions: for decrease in cell growth: 72 h
Protocol: (§1) Human PDAC (AsPC-1, BxPC-3, Panc-1 scr, Panc-1 p53-R273H knock-out (KO) hTERT-HPNE), breast (MCF-7), lung (A549), and colon (HT-29) cancer cell lines were purchased from the American Type Culture Collection (ATCC). The MCF-7, A549, Panc-1 scr, Panc-1 p53 KO and HT-29 cell lines were grown in Dulbecco's Modified Eagle Medium (DMEM; Biological Industries, Beit HaEmek (BI), Israel), and the BxPC-3 and AsPC-1 cell lines were cultured in Roswell Park Memorial Institute-1640 (RPMI-1640; BI, Israel) medium. All media was supplemented with 10% fetal bovine serum (FBS), 200 μM L-glutamine (BI), and 1% penicillin-streptomycin (BI). Cells were cultured at 37° C. in a 5% CO2 humidified incubator.
(§2) Eravacycline dihydrochloride (MedChem Express (MCE)) was dissolved in […] (DDW). Tigecycline (MCE) and omadacycline (MCE) were dissolved in dimethyl sulphoxide (DMSO). All drugs were prepared as 100 mM stock solutions. All cell lines were treated with DMSO as a control (less than 0.1%) or tigecycline, omadacycline, or eravacycline (at the indicated concentrations) for 72 hours. Cell viability and proliferation were determined using the XTT Cell Proliferation Assay Kit (Promega).
(§3) The XTT Cell Proliferation Assay Kit was used to determine cell viability and proliferation. Cells were seeded in 96-well plates at a density of 4,000 cells per well and allowed to attach overnight in a 5% CO2 incubator at 37° C. After overnight incubation, cells were treated with culture medium or in a medium containing tigecycline, omadacycline, or eravacycline at different concentrations (1, 2, 5, 10, 25, and 50 μM) for the indicated time period. Then, 50 μl XTT reaction solution (0.1 ml activation solution+5 ml XTT reagent solution) was added to each well, and the plate was incubated at 37° C. for two hours. After shaking the plate gently to distribute the dye in the wells, the absorbance was measured with a spectrophotometer (Bio-RadiMark Microplate Absorbance reader) at a wavelength of 450 nm and a reference wavelength of 655 nm.
To evaluate the half maximal inhibitory concentration (IC50) of tetracycline derivatives on five different cell lines (MCF-7, A549, HT-29, BxPC-3, and AsPC-1), the cells were seeded and allowed to attach overnight. All cells were washed with phosphate buffered saline (PBS) and then cultured in fresh media containing the drugs tigecycline, omadacycline, or eravacycline at an increasing concentration (0-50 μM) for 72 h. Inhibition of cell proliferation was determined using the XTT Cell Proliferation Assay Kit.
To investigate the effect of tetracycline derivatives on cell proliferation in human breast, lung, colon, and PDAC cells, the inventors treated all cell lines (MCF-7, A549, HT-29, BxPC-3, and AsPC-1) with different concentrations of tigecycline, omadacycline, and eravacycline (1, 2, 5, 10, 25, and 50 μM), with medium used as a control, for 72 h. Then, an XTT assay was performed to determine the growth inhibition rate.

MCF-7 cells = assay: XTT cell proliferation assay, MCF-7; conditions: MCF-7, 72 h, 1-50 μM
Protocol: as §1, §2
(§4) The XTT Cell Proliferation Assay Kit was used to determine cell viability and proliferation. Cells were seeded in 96-well plates at a density of 4,000 cells per well and allowed to attach overnight in a 5% CO2 incubator at 37° C. […] After shaking the plate gently to distribute the dye in the wells, the absorbance was measured with a spectrophotometer (Bio-RadiMark Microplate Absorbance reader) at a wavelength of 450 nm and a reference wavelength of 655 nm.
(§5) To evaluate the half maximal inhibitory concentration (IC50) of tetracycline derivatives on five different cell lines (MCF-7, A549, HT-29, BxPC-3, and AsPC-1), the cells were seeded and allowed to attach overnight. […] Inhibition of cell proliferation was determined using the XTT Cell Proliferation Assay Kit. […]

HT-29 cells = assay: XTT cell proliferation assay, HT-29; conditions: HT-29, 72 h, 1-50 μM
Protocol: as §1, §2, §4, §5

HPNE cell line = assay: XTT cell proliferation assay, normal pancreatic HPNE cells; conditions: 72 h
Protocol: as §1
as §3, with “Then, 50 μl XTT reaction solution (0.1 ml activation solution+5 ml XTT reagent solution) was added to each well, and the plate was incubated at 37° C. for two hours.” left out, “nm. […]” for “nm.”

[1] = tested on: cleaved Poly (ADP-ribose) polymerase 1 (C-PARP1); assay: Western blot of C-PARP1 in BxPC-3 cells; conditions: BxPC-3, 15 μM, 72 h
Protocol: Following the three-day incubation of BxPC-3 cells with medium alone as a control or medium containing different concentrations of eravacycline, gemcitabine, or doxorubicin, BxPC-3 cells were harvested and lysed. BxPC-3 cells were briefly lysed with a buffer containing 20 mM HEPES (pH 7.4), 150 mM NaCl, 1 mM EGTA, 1 mM EDTA, 10% glycerol, 1 mM MgCl2, 1% Triton X-100, and 10 μL of protease phosphatase inhibitors per 1 mL buffer. After incubation on ice for 45 min, the lysates were sonicated for 15 min (40% amplitude without pulses) and centrifuged at 12,000×g at 4° C., and the supernatants were collected. The supernatants were analyzed for protein concentration using the Bradford assay. Absorbance was recorded on a microplate reader at 595 nm (Bio-RadiMark Microplate Absorbance reader).
To evaluate the expression of cell apoptosis-related proteins, cleaved Poly (ADP-ribose) polymerase 1 (C-PARP1) was detected using western blot assays. Actin was used as a control. […] Membranes were incubated for 1 h at room temperature with anti-rabbit secondary antibodies (1:1,000, Sigma-Aldrich). β-actin levels were determined using anti-β-actin (1:10,000, Sigma-Aldrich). Immune complexes were detected with a chemiluminescence reagent (Thermo Fisher Scientific, Pierce ECL Plus Substrate), followed by exposure to Kodak X-ray film (Rochester, NY, USA). […]

POLK = assay: Western blot of POLK protein expression in BxPC-3 cells; conditions: BxPC-3, 72 h, increasing concentrations
p53 (mutated in BxPC-3) = assay: Western blot of p53 protein expression in BxPC-3 cells; conditions: BxPC-3, 72 h, increasing concentrations

With CN(C)[C@@H]1C(O)=C(C(N)=O)C(=O)[C@@]2(O)C(O)=C3C(=O)c4c(O)c(NC(=O)CN5CCCC5)cc(F)c4C[C@H]3C[C@@H]12 [eravacycline, (4S,4aS,5aR,12aS)-4-(Dimethylamino)-7-fluoro-3,10,12,12a-tetrahydroxy-1,11-dioxo-9-[2-(pyrrolidin-1-yl)acetamido]-1,4,4a,5,5a,6,11,12a-octahydrotetracene-2-carboxamide] the “decrease in cell growth” value (AsPC-1 cells; AsPC-1, 25 μM) was 75%, the “decrease in cell growth” value (AsPC-1 cells; AsPC-1, 50 μM) was 89% and the “suppression of proliferation, up to” value (AsPC-1 cells; AsPC-1, 72 h, concentration-dependent, 1-50 μM) was 90-93%. For the same molecule, the pIC50 (AsPC-1 cells; Homo sapiens, ASPC1, AsPC-1, 72 h, XTT, read-out: IC50, inhibition of cell proliferation) was 5.15, the “effect on cell survival / proliferation (in words)” value (MCF-7 cells) was “No significant effect” and the “effect on cell survival / proliferation (in words)” value (HT-29 cells) was “No significant effect”. The “effect on cell proliferation of normal pancreatic cells (in words)” value (HPNE cell line) was “significantly less inhibition than the other PDAC cell lines”, the “C-PARP1 expression vs control” value [1] was “increased significantly” and the “POLK protein expression vs control” value (POLK) was “significantly reduced”. The “p53 protein expression vs control” value (p53 (mutated in BxPC-3)) was “significantly reduced”.
